Laboratory results reported in PMC9090415, “Discovery of small molecule inhibitors of Plasmodium falciparum apicoplast DNA polymerase” (Journal of Enzyme Inhibition and Medicinal Chemistry, 2022).

Target: P. falciparum apicoplast DNA polymerase (Pf-apPOL) (Plasmodium falciparum, UniProt Q8ILY1)
Experiment: Fluorescence-based high-throughput DNA polymerase assay (molecular beacon), primary screen and dose-response
Format: biochemical
Description: The HT assay employs a molecular beacon, a stem-loop DNA template with a Cy3 dye and the Black Hole Quencher on the 3′ and 5′ ends of the DNA, respectively. Pf-apPOL concentration is based on a calculated absorptivity of ε280 = 56750 M^−1 cm^−1. Reactions were carried out at 25 °C, using Corning 3575 […] (well-volume, 20 µL). Assays testing for compound inhibition composed of reaction buffer (pH 7.9 in 50 mM potassium acetate, 20 mM Tris-acetate and 10 mM magnesium acetate), Pf-apPOL (20 nM), DNA substrate (20 nM), dNTPs (6 µM), and compound (10 µM in DMSO). The DNA and nucleotide substrates (dNTPs) were at concentrations of 20 nM and 6 µM, respectively, in the assay. Pf-apPOL was incubated in the reaction buffer with dNTPs and the compound of interest (10 µM, in the assay) at 25 °C for 10 min. The DNA substrate was then added and the reaction was allowed to proceed for 90 min at 25 °C.
Each assay plate contained 16 negative controls (no Pf-apPOL, DMSO present) and 16 positive controls (Pf-apPOL present, no DMSO). The fluorescence of each well was determined using a BioTek Synergy Neo fluorescence plate reader using excitation and emission wavelengths of 555 and 570 nm, respectively.
In the above, Min is the average of fluorescence emission of the negative controls (substrate only), Max the average fluorescence emission from the positive controls (enzyme + substrate), and Test the emission from the assays in the presence of compounds (enzyme + compound + substrates). […] […] The IC50 of each compound was determined using Equation (2): (2) IC50= Vmax/(1+ (I/IC50)^n)
In the above, n measures cooperativity, with n > 1 indicating synergistic binding of more than a single molecule of the compound.
To identify apPOL inhibitors we utilised our previously developed high-throughput DNA polymerase assay. The HT assay is based on a molecular beacon DNA template that forms a stem-loop with a Cy3 dye and the Black Hole Quencher on the 3′ and 5′ ends of the DNA, respectively. DNA polymerase activity extends an annealed primer through the stem region, displacing the fluorophore from the quencher, thereby increasing its fluorescence (Figure 1(A)). The assay accurately recapitulates the kinetic behaviour of apPOL, as measured through more conventional low-throughput gel-based assays. The Z′ factor for the assay described here was 0.9 across all plates (data not shown).
Figure 1. High-throughput screening. (A) The fluorescent-based DNA polymerase assay used to screen the compound libraries. The DNA template strand is a hairpin loop with a primer annealed to the loop. The 3’ end of the primer is 11 bases away from the 6 bp duplex. Strand displacement activity of the DNA polymerase separates the Cy3 dye from the Black hole quencher leading to an increase in fluorescent signal. (B) The high-throughput assay workflow. The DNA polymerase is incubated with […] compound for 10 min prior to addition of the hairpin substrate. The reaction is quenched at 3 different time points and the fluorescent signal is measured and % inhibition is determined using the provided equation.

P. falciparum apicoplast DNA polymerase (Pf-apPOL), sequence (Q8ILY1 entry or part of it): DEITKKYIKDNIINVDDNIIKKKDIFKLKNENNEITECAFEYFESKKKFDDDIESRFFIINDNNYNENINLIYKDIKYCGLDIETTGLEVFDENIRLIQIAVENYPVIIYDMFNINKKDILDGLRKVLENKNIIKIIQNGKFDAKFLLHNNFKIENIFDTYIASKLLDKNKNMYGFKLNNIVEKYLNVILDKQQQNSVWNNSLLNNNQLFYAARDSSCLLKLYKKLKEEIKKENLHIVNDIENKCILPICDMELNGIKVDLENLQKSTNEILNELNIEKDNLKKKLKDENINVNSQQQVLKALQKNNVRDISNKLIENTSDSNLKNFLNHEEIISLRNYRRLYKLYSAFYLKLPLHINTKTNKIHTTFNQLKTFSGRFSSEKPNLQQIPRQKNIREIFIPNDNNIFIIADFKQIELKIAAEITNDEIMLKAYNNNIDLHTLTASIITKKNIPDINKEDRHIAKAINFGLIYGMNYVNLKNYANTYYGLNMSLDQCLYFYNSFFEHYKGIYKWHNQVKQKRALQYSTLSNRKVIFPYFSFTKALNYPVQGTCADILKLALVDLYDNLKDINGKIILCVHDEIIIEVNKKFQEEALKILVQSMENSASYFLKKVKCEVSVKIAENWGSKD

Compound: Cc1cccc(C2=N/C(=C\c3ccc([N+](=O)[O-])o3)C(=O)O2)c1 [KU0058960]
- DNA Pol ('DNA Pol' of the 186 hits list (screen value); 90 min, 10 µM): 79
- % inhibition Apo pol 10' (DRC-1; 10'; conc 2.5): 31.9938%
- % inhibition Apo pol 10' (DRC-1; 10'; conc 5): 37.9558%
- % inhibition Apo pol 10' (DRC-1; 10'; conc 10): 61.5267%
- % inhibition Apo pol 10' (DRC-1; 10'; conc 20): 80.2962%
- % inhibition Apo pol 10' (DRC-1; 10'; conc 40): 86.7912%
- % inhibition Apo pol 10' (DRC-1; 10'; conc 80): 87.9713%
- % inhibition Apol 90' (DRC-1; 90'; conc 2.5): 16.0415%
- % inhibition Apol 90' (DRC-1; 90'; conc 5): 19.2427%
- % inhibition Apol 90' (DRC-1; 90'; conc 10): 39.4275%
- % inhibition Apol 90' (DRC-1; 90'; conc 20): 66.6869%
- % inhibition Apol 90' (DRC-1; 90'; conc 40): 86.2407%
- % inhibition Apol 90' (DRC-1; 90'; conc 80): 92.5412%
- % inhibition apPOL 180' (DRC-1; 180'; conc 2.5): 6.3408%
- % inhibition apPOL 180' (DRC-1; 180'; conc 5): 6.493%
- % inhibition apPOL 180' (DRC-1; 180'; conc 10): 24.2065%
- % inhibition apPOL 180' (DRC-1; 180'; conc 20): 52.0492%
- % inhibition apPOL 180' (DRC-1; 180'; conc 40): 83.7016%
- % inhibition apPOL 180' (DRC-1; 180'; conc 80): 94.2271%
- % inhibition Apo pol 5' (DRC-2; 5'; conc 2.5): 15%
- % inhibition Apo pol 5' (DRC-2; 5'; conc 5): 25%
- % inhibition Apo pol 5' (DRC-2; 5'; conc 10): 37%
- % inhibition Apo pol 5' (DRC-2; 5'; conc 20): 45%
- % inhibition Apo pol 5' (DRC-2; 5'; conc 40): 51%
- % inhibition Apo pol 5' (DRC-2; 5'; conc 80): 48%
- % inhibition Apo pol 5' (DRC-2; 5'; concentration 10): 37%
- % inhibition Apol 40' (DRC-2; 40'; conc 2.5): 12%
- % inhibition Apol 40' (DRC-2; 40'; conc 5): 23%
- % inhibition Apol 40' (DRC-2; 40'; conc 10): 37%
- % inhibition Apol 40' (DRC-2; 40'; conc 20): 50%
- % inhibition Apol 40' (DRC-2; 40'; conc 40): 64%
- % inhibition Apol 40' (DRC-2; 40'; conc 80): 69%
- % inhibition Apol 40' (DRC-2; 40'; concentration 10): 37%
- % inhibition ApPOL 90' (DRC-2; 90'; conc 2.5): 9%
- % inhibition ApPOL 90' (DRC-2; 90'; conc 5): 19%
- % inhibition ApPOL 90' (DRC-2; 90'; conc 10): 33%
- % inhibition ApPOL 90' (DRC-2; 90'; conc 20): 47%
- % inhibition ApPOL 90' (DRC-2; 90'; conc 40): 66%
- % inhibition ApPOL 90' (DRC-2; 90'; conc 80): 74%
- % inhibition apPOL 180' (DRC-2; 180'; conc 2.5): 1.68%
- % inhibition apPOL 180' (DRC-2; 180'; conc 5): 7%
- % inhibition apPOL 180' (DRC-2; 180'; conc 10): 20%
- % inhibition apPOL 180' (DRC-2; 180'; conc 20): 36%
- % inhibition apPOL 180' (DRC-2; 180'; conc 40): 63%
- % inhibition apPOL 180' (DRC-2; 180'; conc 80): 78%
- DNA Pol (primary screen value, "DNA Pol"; 90 min, 10 µM): 79

Compound: CCCCCc1c2c(cc(O)c1C(=O)O)OC(=O)c1c(cc(OC)cc1C(=O)CCCC)O2 [Molecule 24, CCCCCc1c2Oc3cc(OC)cc(c3C(=O)Oc2cc(c1C(=O)O)O)C(=O)CCCC]
- % inhibition Apo pol 10' (DRC-1; concentration 2.5; 10'): 18.1675%
- % inhibition Apol 90' (DRC-1; concentration 2.5; 90'): 17.5572%
- % inhibition apPOL 180' (DRC-1; concentration 2.5; 180'): 13.8829%
- % inhibition Apo pol 10' (DRC-1; concentration 5; 10'): 31.5197%
- % inhibition Apol 90' (DRC-1; concentration 5; 90'): 20.3733%
- % inhibition apPOL 180' (DRC-1; concentration 5; 180'): 11.4977%
- % inhibition Apo pol 10' (DRC-1; concentration 10; 10'): 51.0452%
- % inhibition Apol 90' (DRC-1; concentration 10; 90'): 38.7515%
- % inhibition apPOL 180' (DRC-1; concentration 10; 180'): 28.4609%
- % inhibition Apo pol 10' (DRC-1; concentration 20; 10'): 86.3655%
- % inhibition Apol 90' (DRC-1; concentration 20; 90'): 81.3702%
- % inhibition apPOL 180' (DRC-1; concentration 20; 180'): 74.6955%
- % inhibition Apo pol 10' (DRC-1; concentration 40; 10'): 94.8127%
- % inhibition Apol 90' (DRC-1; concentration 40; 90'): 91.3399%
- % inhibition apPOL 180' (DRC-1; concentration 40; 180'): 88.9652%
- % inhibition Apo pol 10' (DRC-1; concentration 80 (unit not given); 10'): 96.1248%
- % inhibition Apol 90' (DRC-1; concentration 80; 90'): 93.64%
- % inhibition apPOL 180' (DRC-1; concentration 80; 180'): 92.215%
- % inhibition Apo pol 5' (DRC-2; 5'; concentration 2.5): 11%
- % inhibition Apol 40' (DRC-2; 40'; concentration 10): 51%
- % inhibition Apol 40' (DRC-2; 40'; concentration 20): 43%
- % inhibition ApPOL 90' (DRC-2; 90'; concentration 2.5): 11%
- % inhibition ApPOL 90' (DRC-2; 90'; concentration 10): 51%
- % inhibition apPOL 180' (DRC-2; 180'; concentration 5): 11%
- % inhibition apPOL 180' (DRC-2; 180'; concentration 10): 43%
- % inhibition Apo pol 5' (DRC-2; concentration 2.5; 5'): 11%
- % inhibition Apol 40' (DRC-2; concentration 2.5; 40'): 14%
- % inhibition ApPOL 90' (DRC-2; concentration 2.5; 90'): 11%
- % inhibition apPOL 180' (DRC-2; concentration 2.5; 180'): 6%
- % inhibition Apo pol 5' (DRC-2; concentration 5; 5'): 18%
- % inhibition Apol 40' (DRC-2; concentration 5; 40'): 20%
- % inhibition ApPOL 90' (DRC-2; concentration 5; 90'): 19%
- % inhibition apPOL 180' (DRC-2; concentration 5; 180'): 11%
- % inhibition Apo pol 5' (DRC-2; concentration 10; 5'): 42%
- % inhibition Apol 40' (DRC-2; concentration 10; 40'): 51%
- % inhibition ApPOL 90' (DRC-2; concentration 10; 90'): 51%
- % inhibition apPOL 180' (DRC-2; concentration 10; 180'): 43%
- % inhibition Apo pol 5' (DRC-2; concentration 20; 5'): 35%
- % inhibition Apol 40' (DRC-2; concentration 20; 40'): 43%
- % inhibition ApPOL 90' (DRC-2; concentration 20; 90'): 41%
- % inhibition apPOL 180' (DRC-2; concentration 20; 180'): 32%
- % inhibition Apo pol 5' (DRC-2; concentration 40; 5'): 49%
- % inhibition Apol 40' (DRC-2; concentration 40; 40'): 65%
- % inhibition ApPOL 90' (DRC-2; concentration 40; 90'): 66%
- % inhibition apPOL 180' (DRC-2; concentration 40; 180'): 62%
- % inhibition Apo pol 5' (DRC-2; concentration 80; 5'): 56%
- % inhibition Apol 40' (DRC-2; concentration 80; 40'): 76%
- % inhibition ApPOL 90' (DRC-2; concentration 80; 90'): 80%
- % inhibition apPOL 180' (DRC-2; concentration 80; 180'): 81%
- DNA Pol (primary screen value of the 186 hits; unit not given; 90 min, 10 µM): 33
- DNA Pol (primary screen value; head prints only 'DNA Pol'; 90 min, 10 µM): 33

Compound: O=C(Cn1ccc2c(=O)[nH]ccc21)Nc1ccccc1Cl [Molecule 19]
- IC50 (supplemental file 2, sheet IC50 nontoxic compounds; Pf-apPOL): 6.87 µM
